The record followed here is US7087223B2, “Preventives and/or remedies for hyperphosphatemia” (Hisamitsu Pharmaceutical Co., Inc., priority 2000, dated 2006).

One experiment has as its system male SD rats. Kind of experiment: Effects on amount of urinary phosphorus in normal rats. It is filed as in vivo. To be noted: 0.5 g in feed (20 g/rat/day) containing 0.58% phosphorus, 5 days, vs control, FIG. 2. On the procedure: Effects on Amount of Blood and Urinary Phosphorus in Normal Rats
Using male SD rats (aged 8 weeks), the experiments on suppressive effects for the increase of urinary phosphorus amount in the weakly basic anion exchange resin (Ionac A-365; Sybron Chemicals Co.) or calcium carbonate were carried out as follows.
Namely, after the rats were given with feed (20 g/rat/day) containing 0.3% phosphorus for 7 days, feed (20 g/rat/day) containing 0.58% phosphorus was mixed with 0.5 g of Ionac A-365 or calcium carbonate and the mix feed was further administered to the rats for 5 days. Further, urine was collected for 24 hours before the drug administration and 5 days after the drug administration, and the amount of urinary phosphorus was calculated based on the urinary phosphorus concentration and the amount of urine. The urinary phosphorus concentration was measured by an inorganic phosphorus measurement reagent (P Test Wako). The increased amount of urinary phosphorus excretion was calculated based on the obtained difference of urinary phosphorus amount between before drug administration and 5 days after the drug administration, and compared with that of the non-administration group (control). As for rats in each group, 6 rats in each were subjected to the experiments.

A further experiment relates to rats with ⅚ nephrectomy. Kind of experiment: Effects on blood phosphorus concentration and renal function in rats with 5/6 nephrectomy. The conditions noted are these: 0.3 g in 15 g of feed, 12 weeks after nephrectomy, vs control. It is filed as in vivo, rat. On the procedure: Effects on Blood Phosphorus Concentration and Renal Function in Rats With ⅚ Nephrectomy
Using male SD rats (aged 9 weeks), the experiments on the effects for the lowering action of urinary phosphorus amount and the renal function in the weakly basic anion exchange resin (Ionac A-365; Sybron Chemicals. Co.) or calcium carbonate were carried out as follows.
Namely, ⅔ of the left kidney was removed, after 1 week the right kidney being totally removed to make rats with ⅚ nephrectomy. After 1 week, a mixed feed administration of calcium carbonate or Ionac A-365 started. As a powder feed for rat MF manufactured by Oriental Yeast was used, and the administration dose was made 0.3 g content in 15 g of the feed. 12 weeks after the preparation of rats with ⅚ nephrectomy, blood was collected from the caudal vein, and the blood phosphorus concentration was measured by an inorganic phosphorus measurement reagent (P Test Wako). Also, urine was collected for 24 hours before the nephrectomy and 12 weeks after the nephrectomy, and the urinary protein concentration being measured by a protein measurement reagent (Protein Assay Kit, Bio-lad). As for rats in each group, 9 rats in each were subjected to the experiments.

Each structure is given as a SMILES string.

`O=C([O-])[O-].[Ca+2]` [calcium carbonate]: the “increase of urinary phosphorus excretion” value in the experiment on male SD rats is “significantly suppressed compared with that of control”. Moreover, the blood phosphorus concentration result in the experiment on rats with ⅚ nephrectomy (FIG. 3) is recorded as “no significant difference in blood phosphorus concentration compared with control”. The “increase of urinary protein excretion amount” value with rats with ⅚ nephrectomy (FIG. 4) is “significantly suppressed compared with control”.
